The source of these data is patent US20050143321A1, “Composition with stabilized redox properties and method of stabilization of redox properties” (priority 2002, published 2005).

The nature of data set [1]: Content of MDA in liposome dispersions (oxidation of phospholipids). The note with it: Yolk lecithin liposomes; 1 hour. It is filed as physicochemical. On the procedure: In the experiment liposomes are made by mixing and ultrasound treatment of phospholipids of yolk and the water solution, corresponding to this invention, with specified redox properties, containing glycine. Liposomes, prepared by this method, are the milk-white suspension. […] Electrochemically activated water: anomalous properties, mechanism of biological effect. Moscow 1997, […]. 152). There was also determined the rate of oxidation of phospholipids according to content of dialdehyde malonate (DMA).

A short description of data set [2]: Stabilization of redox properties of water solution, 6 months storage at 50° C after autoclaving. It counts as physicochemical. The note with it: autoclaved. The method, then:
Water from water supply system with initial characteristics: Eh=+260 mV, SCE, and pH 6.7, is directed to the device of “Izumrud”-type, which is manufactured in Russia. On the output characteristics of water have the values: […] After sterilization these flasks with mentioned water solutions are put into the thermostat at temperature 50° C. Flasks with water solutions corresponding to this invention and stored at the mentioned temperature, protected from light, during 6 months. After 6 months flasks are opened, and the redox potential is measured.

Data set [3] deals with Salmonella sp. In words: Sensitivity of bacteria to antibiotics dissolved in composition, diffusion into nutrient agar. The arrangement: Rate of increase of sensitivity of bacteria (increase of diameters of zones of suppression vs control): concentration or dose not given beside the values. It counts as cell-based. The note with it: for Rate of increase of sensitivity of bacteria (increase of diameters of zones of suppression vs control): Salmonella, antibiotic dissolved in composition pH=7.9, Eh=−230 mV; for change of strain sensitivity: antibiotic dissolved in composition. On the procedure:
(§1) It was used the method of preparations diffusion into nutrient agar. […] It was used sterilized water with Eh=250 mV, SCE, pH=7.9 and mineralization 350 mg/l for control.

The test system of data set [4] is Klebsiella pneumoniae. The description is as above. It is filed as cell-based. The arrangement: Rate of increase of sensitivity of bacteria (increase of diameters of zones of suppression vs control): concentration or dose not given beside the values. The note with it: for Rate of increase of sensitivity of bacteria (increase of diameters of zones of suppression vs control): Clebsiella, antibiotic dissolved in composition pH=7.9, Eh=−230 mV. On the procedure:
as §1

In data set [5] the test system is S. aureus. Described as above. It counts as cell-based. The note with it: for Rate of increase of sensitivity of bacteria (increase of diameters of zones of suppression vs control): Staphylococcus, antibiotic dissolved in composition pH=7.9, Eh=−230 mV. On the procedure:
as §1

The test system of data set [6] is Shigella sp. The data set is described as above. It is filed as cell-based. The note with it: for Rate of increase of sensitivity of bacteria (increase of diameters of zones of suppression vs control): Shigella, antibiotic dissolved in composition pH=7.9, Eh=−230 mV; for change of strain sensitivity: antibiotic dissolved in composition. The method, then: as §1
Setting [7] is: antibiotic dissolved in composition.

As for `Cc1cc(C(C)(C)C)c(O)c(C(C)(C)C)c1` [Water + butyl-hydroxytoluene (0.1%), butyl-hydroxytoluene], in data set [1], the “Content of MDA” value was found to be 2.7 nmol/mL.

`NCC(=O)O` [Glycine]: the entries for the “pH after 6 months” value in data set [2] (0.005% of weight), in data set [2] (0.5% of weight) and in data set [2] (10% of weight) were 7.2, 7.9 and 7.7, respectively.

`NC[C@H]1O[C@H](O[C@H]2[C@H](O)[C@@H](O[C@H]3O[C@H](CO)[C@@H](O)[C@H](N)[C@H]3O)[C@H](N)C[C@@H]2N)[C@H](O)[C@@H](O)[C@@H]1O` [Kanamycin]: the “Rate of increase of sensitivity of bacteria (increase of diameters of zones of suppression vs control)” value in data set [3] was 18%; in data set [4], 12%; in data set [5], 8%; in data set [6] it was 35%.

For the compound `NC(=O)CC[C@H](N)C(=O)O` [Glutamine], the entries for the “pH after 6 months” value in data set [2] (0.005% of weight), in data set [2] (0.5% of weight) and in data set [2] (10% of weight) were 5.8, 7.2 and 7.2, respectively.

With `C[C@@H](O)[C@H](N)C(=O)O` [Threonine], the “pH after 6 months” value in data set [2] (0.005% of weight) is given as 7.1; in data set [2] (0.5% of weight) it was 7.5; in data set [2] (10% of weight) it was 7.4.

As to `NCC[C@H](O)C(=O)N[C@@H]1C[C@H](N)[C@@H](O[C@H]2O[C@H](CN)[C@@H](O)[C@H](O)[C@H]2O)[C@H](O)[C@H]1O[C@H]1O[C@H](CO)[C@@H](O)[C@H](N)[C@H]1O` [Amicacin], the “Rate of increase of sensitivity of bacteria (increase of diameters of zones of suppression vs control)” value in data set [3] is recorded as 18%; in data set [4], 34%; in data set [5], 4%; in data set [6], 38%. The change of sensitivity result in data set [4] (setting [7]) is “increased”. Further, in data set [6], the “change of strain sensitivity” value is reported as “from medium sensitive to sensitive”.

Consider `O=C(N[C@H](CO)[C@H](O)c1ccc([N+](=O)[O-])cc1)C(Cl)Cl` [Chloramphenicol], for which the “Rate of increase of sensitivity of bacteria (increase of diameters of zones of suppression vs control)” value in data set [3] worked out at 6%; in data set [4] it was 5%; in data set [5], 3%; in data set [6], 17%.

Turning to `CC(=O)Oc1c(C)c(C)c2c(c1C)CCC(C)(CCC[C@H](C)CCC[C@H](C)CCCC(C)C)O2` (some centres unmarked) [Water + tocopherol acetate (2%), tocopherol acetate], the “Content of MDA” value in data set [1] amounted to 3.1 nmol/mL.

As for `Cc1cc(C(C)(C)C)c(O)c(C(C)(C)C)c1` [Water + agidol (1.0%), agidol], in data set [1], the “Content of MDA” value is 2.0 nmol/mL.

As to `CC1(C)S[C@@H]2[C@H](NC(=O)[C@H](N)c3ccccc3)C(=O)N2[C@H]1C(=O)O` [Ampicillin], the “Rate of increase of sensitivity of bacteria (increase of diameters of zones of suppression vs control)” value came out at 26% in data set [3], 7% in data set [4], 22% in data set [5] and 44% in data set [6]. Further, the entries for the “change of strain sensitivity” value in data set [3] and in data set [6] were “from medium sensitive to sensitive” and “from resistant to sensitive”, respectively. The change of sensitivity entry in data set [5] (setting [7]) is on record as “increased”.

As for `N[C@@H](Cc1ccc(O)cc1)C(=O)O` [Tyrosine], the “Eh after 6 months” value is −5 mV in data set [2] (0.005% of weight), −80 mV in data set [2] (0.5% of weight) and −30 mV in data set [2] (10% of weight). The “pH after 6 months” value stood at 7.2 in data set [2] (0.005% of weight), 7.4 in data set [2] (0.5% of weight) and 7.2 in data set [2] (10% of weight).

Consider `N[C@@H](CS)C(=O)O` [Cysteine], for which the “pH after 6 months” value in data set [2] (0.005% of weight) was found to be 7.3; in data set [2] (0.5% of weight) it was 7.8; in data set [2] (10% of weight) it was 6.9.

On to Gentamycin, for which the “Rate of increase of sensitivity of bacteria (increase of diameters of zones of suppression vs control)” value in data set [3] is reported as 47%; in data set [4], 6%; in data set [5], 11%; in data set [6] it was 40%. For the same compound, the “change of strain sensitivity” value in data set [3] and in data set [6] was “from resistant to sensitive” in each case.

Regarding `NC(=O)C[C@H](N)C(=O)O` [Asparagine], the entries for the “pH after 6 months” value in data set [2] (0.005% of weight), in data set [2] (0.5% of weight) and in data set [2] (10% of weight) were 5.9, 6.9 and 7.0, respectively.

Gelatin: the “pH after 6 months” value in data set [2] (0.005% of weight) is listed as 6.8; in data set [2] (0.5% of weight) it was 7.3; in data set [2] (10% of weight), 7.6.

Take `CCn1cc(C(=O)O)c(=O)c2ccc(C)nc21` [Nalidixic acid]: the “Rate of increase of sensitivity of bacteria (increase of diameters of zones of suppression vs control)” value was determined as 42% in data set [3], 11% in data set [4], 3% in data set [5] and 33% in data set [6]. Besides, the “change of strain sensitivity” value in data set [3] was “from resistant to sensitive”.

For `N[C@@H](CO)C(=O)O` [Serine], the “pH after 6 months” value in data set [2] (0.005% of weight) is on record as 7.1; in data set [2] (0.5% of weight), 7.8; in data set [2] (10% of weight), 7.6.

Take `NCC(N)=O` [Glycine amide]: the results for the “pH after 6 months” value in data set [2] (0.005% of weight), in data set [2] (0.5% of weight) and in data set [2] (10% of weight) were 6.5, 7.4 and 7.0, respectively.
